In patent US9675591B2, “Methods for treating seizure disorders and pain” (THE REGENTS OF THE UNIVERSITY OF CALIFORNIA, priority 2013, dated 2017):
Where two headings read alike, the source gives them in different places.

Columns and labels:
[1] = Pharmacokinetics in Sprague-Dawley rats; assay type: in vivo
Nav1.1 = Nav1.1 (Homo sapiens (Human), UniProt P35498); assay: Voltage-clamp, Nav1.1 in HEK-293 cells; assay type: cell-based; conditions: holding potential -90 mV, 0.1 Hz; read-out: EC50 or IC50, Nav1.1
Experimental: (§1) All experiments were conducted at room temperature (22-24° C.) with an EPC-10 amplifier and Pulse software (HEKA, Lambrecht/Pfalz, Germany) in the whole-cell mode of the patch-clamp technique. Human embryonic kidney (HEK)-293 cell lines stably expressing hNav1.1, hNav1.5, hNav1.7 channels (generously provided by Dr. Christopher Lossin, University of California Davis), hNav1.4 (Frank Lehmann-Horn, University of Ulm), or hKv2.1 channels (James Trimmer, University of California Davis) were bathed in extracellular solution containing (in mM): 160 NaCl; 4.5 KCl; 1 MgCl2; 2 CaCl2; 10 HEPES [pH was adjusted to 7.4 using NaOH (310 mOsm)]. Pipettes were filled with intracellular solution containing (in mM): 145 KF; 2 MgCl2; 10 ethylene glycol tetraacetic acid; 10 HEPES (pH adjusted to 7.2 with KOH; 300 mOsm). Neuroblastoma N1E-115 cells (ATCC, Manassa, Va., USA) expressing Nav1.2 were patched with a CsF internal solution consisting of (in mM): 10 NaF; 110 CsF; 20 CsCl; 2 ethylene glycol tetraacetic acid; 10 HEPES (CsOH to pH 7.35; 300 mOsm). All pipette tip resistances were 2-4 MΩ. Series resistances of 3-10 MΩ were compensated 40-80%. All cells were voltage-clamped to a holding potential of −90 mV unless otherwise specified. The sampling frequency was 5 kHz. Na^+ currents were elicited by 30-ms pulse to 0 mV from −90 mV applied every 10 s. […]

KCa2.3 (SK3) = KCa2.3 (SK3) (Homo sapiens (Human), UniProt Q9UGI6); assay: Whole-cell patch-clamp, KCa2.3; assay type: cell-based; conditions: 250 nM free intracellular Ca2+; read-out: EC50 or IC50, KCa2.3
Experimental: HEK-293 or COS-7 cells stably expressing hKCa2.1, rKCa2.2, and hKCa2.3 have been described previously (Sankaranarayanan et al., 2009). Cells were held at −80 mV and KCa currents elicited by dialysis with a K^+ aspartate based internal containing 250 nM free Ca^2+ (pH 7.2, 290 mOsm, pipette resistance 1.5 MΩ). To reduce currents from native chloride channels, Na^+ aspartate Ringer was used as an external solution. KCa2 currents were recorded with 200-ms voltage ramps from −120 to +40 mV applied every 10 s, and the fold increase of slope conductance at −80 mV by drug was taken as a measure of channel activation. Data analysis, fitting, and plotting were performed with IGOR-Pro (Wavemetrics, Lake Oswego, Oreg., USA) and Origin 9.0 (OriginLab, Northampton, Mass., USA).

mechanical allodynia = assay: Pain assay, partial ligation of the sciatic nerve (Von Frey); assay type: in vivo, rats; conditions: 5 mg/kg, 2 hour time point
Experimental: Rats were anesthetized with sodium pentobarbital, the upper thigh shaved and wiped off with ethanol and betadine. A small incision was made in the skin and the underlying muscle separated to expose the sciatic nerve. Approximately ⅓ to ½ of the nerve was tied off by passing a needle (7.0) and nylon suture through the nerve. The muscle and skin incision were afterwards closed off and the animals kept warm until they had recovered from the anesthesia. This procedure was performed on the right side (ipsilateral) while a sham surgery exposing but not ligating the nerve was performed on the left hind leg (contralateral). After 7 days of recovery animals were tested for the development of mechanical allodynia (abnormal response to a non-noxious stimulus) by putting them in a bottomless plexiglass box placed on a wire mesh (¼″) platform. After 30-60 min of acclimatization a baseline mechanical sensitivity was determined by applying a series of calibrated Von Frey fibers perpendicularly to the plantar surface of each hind paw and holding it there for about 6 s with enough force to slightly bend the fiber. […] This was repeated until a 50% threshold for withdrawal could be determined. The allodynic threshold was then redetermined after i.p. application of SKA-19 at 5 mg/kg at the time-to-peak effect determined in the acute seizure models.

Nav1.7 = Nav1.7 (Homo sapiens (Human), UniProt Q15858); assay: Voltage-clamp, Nav1.7 in HEK-293 cells; assay type: cell-based
Experimental: as §1

[2] = ASP toxicity studies (species not stated); assay type: in vivo; conditions: 200 mg/kg
sound-induced seizures = assay: Frings audiogenic seizure (AGS)-susceptible mouse model; assay type: in vivo, mice; conditions: ip, 2 h, read-out: ED50, protection from sound induced seizures
Experimental: Frings audiogenic seizure (AGS)-susceptible mice are genetically susceptible to sound-induced seizures (Frings et al., 1953). A colony of AGS mice is maintained by the ASP at the University of Utah. Groups of 8 female mice (weighing 18-25 g) were treated i.p. with increasing doses of SKA-19. At the TPE in the MES test, mice were exposed to a sound stimulus of 110 decibels (11 KHz) delivered for 20 s.

Sequence of Nav1.7 (Q15858 whole entry): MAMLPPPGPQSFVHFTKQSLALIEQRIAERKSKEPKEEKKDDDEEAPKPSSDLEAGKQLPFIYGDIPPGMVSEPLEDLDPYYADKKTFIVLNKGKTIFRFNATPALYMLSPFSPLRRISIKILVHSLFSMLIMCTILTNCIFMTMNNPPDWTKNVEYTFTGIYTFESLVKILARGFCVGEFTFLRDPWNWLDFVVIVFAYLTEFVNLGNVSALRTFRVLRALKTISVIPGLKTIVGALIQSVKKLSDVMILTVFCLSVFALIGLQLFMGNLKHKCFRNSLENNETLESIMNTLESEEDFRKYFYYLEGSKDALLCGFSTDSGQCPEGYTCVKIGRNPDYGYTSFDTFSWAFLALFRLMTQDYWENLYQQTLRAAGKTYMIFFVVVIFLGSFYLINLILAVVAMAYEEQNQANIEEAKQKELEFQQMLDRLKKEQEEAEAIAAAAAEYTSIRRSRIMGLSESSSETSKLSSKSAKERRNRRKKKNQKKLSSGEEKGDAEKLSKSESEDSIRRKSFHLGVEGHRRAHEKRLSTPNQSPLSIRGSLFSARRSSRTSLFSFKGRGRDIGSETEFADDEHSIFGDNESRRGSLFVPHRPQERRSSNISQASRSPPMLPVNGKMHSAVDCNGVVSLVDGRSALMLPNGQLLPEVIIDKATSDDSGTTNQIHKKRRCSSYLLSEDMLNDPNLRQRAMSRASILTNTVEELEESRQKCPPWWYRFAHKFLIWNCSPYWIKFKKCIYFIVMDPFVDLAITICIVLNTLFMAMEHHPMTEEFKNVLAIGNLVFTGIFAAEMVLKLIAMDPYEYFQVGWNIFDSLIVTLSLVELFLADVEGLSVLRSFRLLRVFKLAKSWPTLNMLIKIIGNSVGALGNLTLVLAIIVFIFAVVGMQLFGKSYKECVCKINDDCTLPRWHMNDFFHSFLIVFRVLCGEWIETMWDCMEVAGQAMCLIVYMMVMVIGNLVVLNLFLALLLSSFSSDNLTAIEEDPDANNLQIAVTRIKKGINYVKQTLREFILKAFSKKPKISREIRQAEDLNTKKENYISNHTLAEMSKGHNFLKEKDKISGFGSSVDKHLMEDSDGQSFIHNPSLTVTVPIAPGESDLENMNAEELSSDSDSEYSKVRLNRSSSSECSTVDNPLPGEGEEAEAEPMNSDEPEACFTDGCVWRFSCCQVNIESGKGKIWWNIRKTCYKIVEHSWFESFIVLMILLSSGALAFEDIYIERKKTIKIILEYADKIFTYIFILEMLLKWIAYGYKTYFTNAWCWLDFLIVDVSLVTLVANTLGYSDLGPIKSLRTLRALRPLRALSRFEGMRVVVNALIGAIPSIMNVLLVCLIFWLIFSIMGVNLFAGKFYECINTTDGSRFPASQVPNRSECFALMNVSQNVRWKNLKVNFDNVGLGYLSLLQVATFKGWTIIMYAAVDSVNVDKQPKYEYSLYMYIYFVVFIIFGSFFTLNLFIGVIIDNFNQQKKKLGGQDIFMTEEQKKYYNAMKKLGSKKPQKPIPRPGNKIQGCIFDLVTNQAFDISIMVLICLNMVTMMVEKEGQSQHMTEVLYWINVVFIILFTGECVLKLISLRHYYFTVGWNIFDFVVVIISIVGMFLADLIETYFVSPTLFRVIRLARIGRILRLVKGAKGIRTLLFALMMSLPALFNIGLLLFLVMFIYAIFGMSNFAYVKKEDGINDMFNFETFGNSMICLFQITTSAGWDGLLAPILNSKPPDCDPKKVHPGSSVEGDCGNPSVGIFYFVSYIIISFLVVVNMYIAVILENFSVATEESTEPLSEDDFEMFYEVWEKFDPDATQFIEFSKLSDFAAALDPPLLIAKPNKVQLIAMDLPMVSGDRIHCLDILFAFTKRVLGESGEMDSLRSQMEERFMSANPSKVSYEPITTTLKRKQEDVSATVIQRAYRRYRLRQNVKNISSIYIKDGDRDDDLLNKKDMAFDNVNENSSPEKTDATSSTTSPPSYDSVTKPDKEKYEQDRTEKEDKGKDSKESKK

Nc1nc2ccc(SC(F)(F)F)cc2s1 [SKA-19, 6-((trifluoromethyl)thio)benzo[d]thiazol-2-amine]
oral availability ([1]; 10 mg/kg, both vehicles (solution and methylcellulose suspension)): roughly 30%
penetration into tissues (brain, heart, spleen, liver) ([1]; 2 h after i.p. 10 mg/kg): very effective at penetrating into tissues
peak plasma concentration ([1]; gavage 10 mg/kg, suspension in methylcellulose): 1.6 ± 0.6 µM
Kp at 2 h ([1]; male, Sprague-Dawley, rat, brain, ip, 10 mg/kg i.p., 2 h, read-out: brain to plasma concentration ratio): ~3
concentration at 2 h ([1]; male, Sprague-Dawley, rat, plasma, intraperitoneal, 10 mg/kg i.p., 2 h, read-out: plasma concentration): 4.6 ± 1.3 µM
concentration at 2 h ([1]; male, Sprague-Dawley, rat, plasma, intraperitoneal, 30 mg/kg i.p., 2 hours, read-out: total plasma concentration): 12 ± 2.21 µM
concentration at 4 h ([1]; male, Sprague-Dawley, rat, plasma, intraperitoneal, 30 mg/kg i.p., 4 hours, read-out: total plasma concentration): 13.1 ± 2.67 µM
half-life ([1]; male, Sprague-Dawley, rat, plasma, iv, 10 mg/kg, rats, i.v. 10 mg/kg in cremophor EL/PBS, read-out: elimination half-life t1/2 (converted)): 2.2 h
concentration at 8 h ([1]; male, Sprague-Dawley, rat, plasma, oral solution 10 mg/kg, at 8 h): 0.4 µM
oral availability ([1]; methylcellulose suspension as used by the ASP): about 50%
plasma concentration ([1]; oral solution 10 mg/kg, for 5 h): around 1 μM
sedation ([1]; rats, 30 mg/kg i.p., recovered without weight loss at 24 h): prolonged sedation
elimination half-life t1/2 ([1]; rats, i.v. 10 mg/kg in cremophor EL/PBS): 2.16 ± 0.023 h
IC50 (Nav1.1): 6.9 ± 4.9 µM
EC50 (KCa2.3 (SK3)): 15 µM
withdrawal threshold (Von Frey) (mechanical allodynia): significantly increased
block of Nav1.7 (Nav1.7): low micromolar range
duration of sedation and neurological impairment [2]: up to 24 h
ED50 (sound-induced seizures): 2.15 mg/kg
